In PubChem BioAssay (NCI):
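Where inhibition never reached the appropriate level, the endpoint shown equals the highest concentration tested. Otherwise, values were interpolated linearly from a five-concentration, 48-hour dose response in 96-well plates. GI50 is the concentration that inhibits growth by half. TGI denotes the concentration required for complete inhibition of growth.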

Key:
Experiment in all cases: NCI tumour cell line growth inhibition, 48 h
SF-295 CNS = test system: SF-295 CNS
HCT-15 colon = test system: HCT-15 colon
TK-10 renal = test system: TK-10 renal
UACC-62 melanoma = test system: UACC-62 melanoma
RXF 393 renal = test system: RXF 393 renal
HCT-116 colon = test system: HCT-116 colon
EKVX NSCLC = test system: EKVX NSCLC
A498 renal = test system: A498 renal
MOLT-4 leukemia = test system: MOLT-4 leukemia
ACHN renal = test system: ACHN renal
U251 CNS = test system: U251 CNS
MALME-3M melanoma = test system: MALME-3M melanoma
OVCAR-8 ovarian = test system: OVCAR-8 ovarian
CAKI-1 renal = test system: CAKI-1 renal
SK-MEL-5 melanoma = test system: SK-MEL-5 melanoma
IGROV1 ovarian = test system: IGROV1 ovarian
T-47D breast = test system: T-47D breast
SW-620 colon = test system: SW-620 colon
NCI-H23 lung = test system: NCI-H23 lung
COLO 205 colon = test system: COLO 205 colon
SNB-19 CNS = test system: SNB-19 CNS
K-562 leukemia = test system: K-562 leukemia
HT29 colon = test system: HT29 colon
MCF7 breast = test system: MCF7 breast
LOX IMVI melanoma = test system: LOX IMVI melanoma
A549 NSCLC = test system: A549 NSCLC
SN12C renal = test system: SN12C renal
NCI/ADR-RES ovarian = test system: NCI/ADR-RES ovarian
NCI-H522 lung = test system: NCI-H522 lung
DU-145 prostate = test system: DU-145 prostate
HS 578T breast = test system: HS 578T breast
SNB-75 CNS = test system: SNB-75 CNS
OVCAR-3 ovarian = test system: OVCAR-3 ovarian
HCC-2998 colon = test system: HCC-2998 colon
SF-539 CNS = test system: SF-539 CNS
OVCAR-5 ovarian = test system: OVCAR-5 ovarian
NCI-H460 lung = test system: NCI-H460 lung
SK-MEL-28 melanoma = test system: SK-MEL-28 melanoma
OVCAR-4 ovarian = test system: OVCAR-4 ovarian
HOP-92 NSCLC = test system: HOP-92 NSCLC
NCI-H226 lung = test system: NCI-H226 lung
SF-268 CNS = test system: SF-268 CNS
SK-OV-3 ovarian = test system: SK-OV-3 ovarian
RPMI-8226 leukemia = test system: RPMI-8226 leukemia
SR leukemia = test system: SR leukemia
UACC-257 melanoma = test system: UACC-257 melanoma
786-0 renal = test system: 786-0 renal
UO-31 renal = test system: UO-31 renal
CCRF-CEM leukemia = test system: CCRF-CEM leukemia
PC-3 prostate = test system: PC-3 prostate
BT-549 breast = test system: BT-549 breast
SK-MEL-2 melanoma = test system: SK-MEL-2 melanoma
KM12 colon = test system: KM12 colon
MDA-MB-231 breast = test system: MDA-MB-231 breast
HOP-62 NSCLC = test system: HOP-62 NSCLC
MDA-MB-435 = test system: MDA-MB-435

Structure (SMILES): COc1cccc(C#Cc2ccccc2C#CCCCCO)c1
- GI50 (SF-295 CNS): 7.94 µM
- TGI (SF-295 CNS): 22.1 µM
- GI50 (HCT-15 colon): 3.62 µM
- TGI (HCT-15 colon): 17.7 µM
- GI50 (TK-10 renal): 13.1 µM
- TGI (TK-10 renal): 29.6 µM
- GI50 (UACC-62 melanoma): 5.7 µM
- TGI (UACC-62 melanoma): 19.8 µM
- GI50 (RXF 393 renal): 1.78 µM
- TGI (RXF 393 renal): 9.89 µM
- GI50 (HCT-116 colon): 12.2 µM
- TGI (HCT-116 colon): 26.4 µM
- GI50 (EKVX NSCLC): 8.74 µM
- TGI (EKVX NSCLC): 24.3 µM
- GI50 (A498 renal): 10.3 µM
- TGI (A498 renal): 23.8 µM
- GI50 (MOLT-4 leukemia): 3.82 µM
- TGI (MOLT-4 leukemia): 53.1 µM
- GI50 (ACHN renal): 11.8 µM
- TGI (ACHN renal): 25.8 µM
- GI50 (U251 CNS): 8.41 µM
- TGI (U251 CNS): 22.3 µM
- GI50 (MALME-3M melanoma): 13.9 µM
- TGI (MALME-3M melanoma): 37.9 µM
- GI50 (OVCAR-8 ovarian): 12.5 µM
- TGI (OVCAR-8 ovarian): 27.9 µM
- GI50 (CAKI-1 renal): 6.49 µM
- TGI (CAKI-1 renal): 19.9 µM
- GI50 (SK-MEL-5 melanoma): 19.1 µM
- TGI (SK-MEL-5 melanoma): 33.8 µM
- GI50 (IGROV1 ovarian): 10.3 µM
- TGI (IGROV1 ovarian): 22.6 µM
- GI50 (T-47D breast): 18.5 µM
- TGI (T-47D breast): 43.1 µM
- GI50 (SW-620 colon): 17.5 µM
- TGI (SW-620 colon): 35.9 µM
- GI50 (NCI-H23 lung): 12.5 µM
- TGI (NCI-H23 lung): 26.1 µM
- GI50 (COLO 205 colon): 17.9 µM
- TGI (COLO 205 colon): 36.2 µM
- GI50 (SNB-19 CNS): 18.5 µM
- TGI (SNB-19 CNS): 35.5 µM
- GI50 (K-562 leukemia): 1.84 µM
- TGI (K-562 leukemia): 85.4 µM
- GI50 (HT29 colon): 12.1 µM
- TGI (HT29 colon): 27.9 µM
- GI50 (MCF7 breast): 16.1 µM
- TGI (MCF7 breast): 41.1 µM
- GI50 (LOX IMVI melanoma): 6.3 µM
- TGI (LOX IMVI melanoma): 21.2 µM
- GI50 (A549 NSCLC): 4.21 µM
- TGI (A549 NSCLC): 17.3 µM
- GI50 (SN12C renal): 11.6 µM
- TGI (SN12C renal): 27 µM
- GI50 (NCI/ADR-RES ovarian): 5.44 µM
- TGI (NCI/ADR-RES ovarian): 20 µM
- GI50 (NCI-H522 lung): 13.3 µM
- TGI (NCI-H522 lung): 30 µM
- GI50 (DU-145 prostate): 4.17 µM
- TGI (DU-145 prostate): 18.9 µM
- GI50 (HS 578T breast): 22.9 µM
- TGI (HS 578T breast): 56.9 µM
- GI50 (SNB-75 CNS): 12.8 µM
- TGI (SNB-75 CNS): 26.3 µM
- GI50 (OVCAR-3 ovarian): 10.7 µM
- TGI (OVCAR-3 ovarian): 28.8 µM
- GI50 (HCC-2998 colon): 5.95 µM
- TGI (HCC-2998 colon): 19.4 µM
- GI50 (SF-539 CNS): 11.5 µM
- TGI (SF-539 CNS): 24.6 µM
- GI50 (OVCAR-5 ovarian): 14.6 µM
- TGI (OVCAR-5 ovarian): 29.3 µM
- GI50 (NCI-H460 lung): 16.1 µM
- TGI (NCI-H460 lung): 34 µM
- GI50 (SK-MEL-28 melanoma): 15.3 µM
- TGI (SK-MEL-28 melanoma): 30.3 µM
- GI50 (OVCAR-4 ovarian): 20.4 µM
- TGI (OVCAR-4 ovarian): 44.2 µM
- GI50 (HOP-92 NSCLC): 2.49 µM
- TGI (HOP-92 NSCLC): 21.7 µM
- GI50 (NCI-H226 lung): 15.7 µM
- TGI (NCI-H226 lung): 40.5 µM
- GI50 (SF-268 CNS): 16.1 µM
- TGI (SF-268 CNS): 33.5 µM
- GI50 (SK-OV-3 ovarian): 17.2 µM
- TGI (SK-OV-3 ovarian): 32.5 µM
- GI50 (RPMI-8226 leukemia): 3.77 µM
- TGI (RPMI-8226 leukemia): 26.4 µM
- GI50 (SR leukemia): 1.95 µM
- TGI (SR leukemia): 12.1 µM
- GI50 (UACC-257 melanoma): 12.5 µM
- TGI (UACC-257 melanoma): 25.4 µM
- GI50 (786-0 renal): 12.8 µM
- TGI (786-0 renal): 28 µM
- GI50 (UO-31 renal): 8.79 µM
- TGI (UO-31 renal): 22.3 µM
- GI50 (CCRF-CEM leukemia): 3.5 µM
- TGI (CCRF-CEM leukemia): 17.4 µM
- GI50 (PC-3 prostate): 9.83 µM
- TGI (PC-3 prostate): 23.7 µM
- GI50 (BT-549 breast): 3.07 µM
- TGI (BT-549 breast): 20.2 µM
- GI50 (SK-MEL-2 melanoma): 20.5 µM
- TGI (SK-MEL-2 melanoma): 44.8 µM
- GI50 (KM12 colon): 12.4 µM
- TGI (KM12 colon): 41.8 µM
- GI50 (MDA-MB-231 breast): 3.41 µM
- TGI (MDA-MB-231 breast): 13.2 µM
- GI50 (HOP-62 NSCLC): 15.5 µM
- TGI (HOP-62 NSCLC): 34.3 µM
- GI50 (MDA-MB-435): 1.92 µM
- TGI (MDA-MB-435): 8.2 µM
